Patent US20140127316A1, “PROPOLIS AND CAFFEIC ACID PHENETHYL ESTER AND USES THEREOF” (NEW YORK UNIVERSITY, priority 2011, published 2014)

Tests used:
[1] = tested on: histone deacetylases (HDAC); assay: Western blotting of acetylated histone proteins in breast cancer cell lines; type: cell-based, human; conditions: MDA-231 and MCF-7 cells, FIG. 2
Source text: (§1) These cell lines serve as in vitro breast cancer models. […] This typically signifies the inhibition of histone deacetylases and is used as a readout of this process via Western blotting. […] Further, FIGS. 3 and 4 provide additional evidence of the epigenetic changes that occur with CAPE and propolis resulting from HDAC inhibition. FIG. 3 depicts the downregulation of the estrogen receptor (ER) and progesterone receptor (PR) in MCF-7 cells and the downregulation of the epidermal growth factor receptor (EGFR) in MDA-231 cells (FIG. 4B). The re-expression of a previously silenced gene, (ER), a key function of HDAC inhibition, is depicted by the upregulation of the estrogen receptor in the ER-negative MDA-231 cell line (FIG. 4A). Furthermore, we have shown the HDAC inhibitor activity is not just restricted to breast cancer, but also in lymphoma (FIG. 9).

[2] = tested on: histone deacetylases (HDAC); assay: Western blotting of acetylated histone H3 in lymphoma cell lines; type: cell-based; conditions: RIVA, LY 1, SU-DHL6 lymphoma cell lines, FIG. 9
Source text: FIG. 9 illustrates by Western Blotting CAPE induced hyperacetylation of Histone Proteins (Ac H3) in the indicated lymphoma cell lines (RIVA, LY 1, SU-DHL6).
as §1

[3] = tested on: estrogen receptor (ER); assay: Immunoblotting of ER in MCF-7 cells; type: cell-based; conditions: FIG. 3
[4] = tested on: progesterone receptor (PR); assay: Immunoblotting of PR in MCF-7 cells; type: cell-based; conditions: FIG. 3
[5] = tested on: estrogen receptor (ER); assay: ER re-expression in MDA-231 cells by immunofluorescence and RT-PCR; type: cell-based; conditions: ER-negative MDA-231 cells, FIG. 4A
[6] = tested on: epidermal growth factor receptor (EGFR); assay: Immunoblotting of EGFR in MDA-231 cells; type: cell-based; conditions: FIG. 4B
[7] = tested on: p-Her2; assay: Immunoblotting of phosphorylated Her2 in SKBR3 cells; type: cell-based; conditions: FIG. 5
Source text: The HDAC inhibition seen in many BC cell lines by CAPE and propolis results in the decrease of EGFR over-expression and induction of ER in MDA-231 cells and decrease in ER and PR expression in MCF-7 cells (FIG. 3, 4). CAPE and Propolis cause a decrease in p-Her2, the activated form of Her 2 in SKBR3 cells, likely through intracellular signaling mechanisms (FIG. 5). […] To establish that the epigenetic effects of CAPE can be recapitulated in the natural product, we determined the concentration of CAPE in propolis by HPLC. […] Furthermore, the enhanced effects of HDAC inhibition with propolis, compared to CAPE alone, make it a suitable candidate for a clinical trial in any area of oncology.

[8] = tested on: MDA-231 xenografts; assay: MDA-231 xenografts in nude mice; type: in vivo
Experimental: (§2) Nude mice bearing MDA-231 xenografts were fed CAPE-containing diets and/or treated topically with CAPE, and tumors measured twice/week. bCSC (breast CSC) were isolated from MDA-231 cells and xenografts, and propagated as mammospheres. Cell growth was analyzed using MTT and cell cycle by flow cytometry. Apoptosis was determined by co-staining bCSC with Annexin V and propidium iodide.

[9] = tested on: bCSC isolated from MDA-231 cells; assay: Breast cancer stem cell (bCSC) clonal growth and self-renewal, mammospheres and soft agar; type: cell-based, human
Experimental: as §2

[10] = tested on: MDA-MB-231 (MDA-231) cells; assay: Cell growth of MDA-231 cells (MTT); type: cell-based, human
Experimental: as §2

[11] = tested on: normal human mammary epithelial cells; assay: Effect on normal mammary epithelial cells; type: cell-based
[12] = tested on: multidrug resistance 1 (mdr-1) gene; assay: Gene expression microarray analysis; type: cell-based
[13] = tested on: VEGF; conditions: MDA-231 cells; cited from earlier work
[14] = tested on: endothelial cells; conditions: cited from earlier work
[15] = tested on: NF-κB; conditions: cited from earlier work

Structure (SMILES) | HDAC inhibition (accumulation of acetylated histone proteins) [1] | Acetylation of histone proteins (Ac H3) [2] | ER expression [3] | PR expression [4] | ER expression (re-expression of silenced gene) [5] | EGFR expression [6] | p-Her2 expression [7] | Growth of MDA-231 xenografts ([8]; dietary CAPE) | Tumor volume ([8]; subsequent topical treatment after dietary CAPE) | bCSC clonal growth [9] | bCSC and progenitor self-renewal (growth in soft agar) ([9]; pretreatment with 20 μM) | Growth of MDA-231 cells [10] | Effect on normal cells [11] | mdr-1 gene expression [12] | VEGF secretion [13] | Tubule formation [14] | NF-κB inhibition [15]
O=C(/C=C/c1ccc(O)c(O)c1)OCCc1ccccc1 [CAPE, caffeic acid phenethyl ester] | HDAC inhibitors | hyperacetylation | downregulation | downregulation | upregulation | downregulation | decrease | significantly inhibited | further decreased | decreased | decreased growth in soft agar | inhibits growth | innocuous | down-regulates | decreases | inhibits | inhibits
Cc1[nH]c2ccccc2c1CCNCc1ccc(/C=C/C(=O)NO)cc1 [LBH 589, reference compound] | – | – | – | – | re-expression | – | – | – | – | – | – | – | – | – | – | – | –
